US20250275976A1, “Methods of Treating Neuroinflammatory Conditions” (Athira Pharma, Inc., priority 2022, published 2025)
Where two headings read alike, the source gives them in different places.

What was measured:
[1] = tested on: THP-1-differentiated macrophages; assay: Pro-inflammatory cytokines in supernatants of LPS-challenged THP-1-differentiated macrophages; assay type: cell-based, human; parameters: key to Significant reduction in pro-inflammatory cytokine expression: IL-6 / Significant reduction in pro-inflammatory cytokine expression: TNF-α / Significant reduction in pro-inflammatory cytokine expression: IL-1β: “NS” indicates a non-significant reduction in the indicated cytokine; “+” indicates a p value <0.05 in Tukey post test; “++” indicates a p value <0.01 in Tukey post test; details: for Significant reduction in pro-inflammatory cytokine expression: IL-1β / Significant reduction in pro-inflammatory cytokine expression: IL-6 / Significant reduction in pro-inflammatory cytokine expression: TNF-α: LPS 24 hrs
Source text: Neuroinflammation plays a crucial role in disease progression and is a complex phenomenon involving various cells that affect many extra- and intracellular signaling pathways and cytokine production. The macrophage of the brain (microglia) is the main agent of innate immunity in the CNS and performs various functions, including neuroprotection, in response to inflammatory signals. Activated microglia participate in developing neuroinflammation, responding to toxic exogenous substances (like LPS) or endogenous substances (like amyloid-beta). Here, THP-1 cells were used as an in-vitro cell model to evaluate mechanisms relevant to CNS inflammation. Differentiation with phorbol-12-myristate-13-acetate (PMA) causes THP-1 monocyte cells to acquire functional and morphological resemblance to macrophages. LPS interacts with THP-1 differentiated macrophage through the toll-like receptor 4, triggering the inflammatory response and stimulating pro-inflammatory cytokine release and eventually leading to cellular death. Test compounds were investigated for whether they have anti-inflammatory effects on LPS-challenged macrophage cultures. THP-1-differentiated macrophages were treated with test compounds for 20 minutes, followed by 24 hrs of LPS challenge. Culture supernatants were then collected to analyzed for the presence of pro-inflammatory cytokines: interleukin 1β (IL--1β), interleukin 6 (IL-6) and tumor necrosis factor α (TNF-α).
Cytokine quantification in cell culture supernatants was accomplished by homogeneous time resolved fluorescence (HTRF) kits to assess levels of IL-1β (Human IL-1β kit, #62HIL1BPEG, Cisbio) and IL-6 (Human IL-6 kit, 62HILO6PET, Cisbio), and by ELISA (Human TNF-α ELISA kit, KHC3011, ThermoFisher) to determine the levels of TNF-α.
Data analysis was performed via 1-way ANOVA with Tukey post-test compared to LPS treatment cultures using Prism statistical software (GraphPad). Tabular data indicates significance of reduction in culture supernatants for the indicated analyte at the indicated dose.

[2] = tested on: Rat primary cortical neuron cultures; assay: Neuroprotection of rat cortical neurons against LPS challenge (Cell Titer-Glo); details: at at least one dose tested
[3] = tested on: Prp-TDP43^A315T mice; assay type: in vivo
Description: Extranuclear accumulation of TDP-43 protein is a pathological hallmark of a number of neurological diseases. […] Male Prp-TDP43^A315T mice (N=10 mice per group) at 3 weeks of age were administered daily treatments of test compounds. Compound A19 was administered via subcutaneous injection, and Compound 5a and Compound 6a were administered via oral gavage. After 2 months of treatment, plasma samples were collected for cytokine quantification. […] Plasma IL-6 and TNF-α cytokine expression levels were determined using the ELISA method. The submandibular vein was punctured with a lancet and a blood drop was collected directly on a microtube containing EDTA as anticoagulant. Samples were centrifuged for 15 minutes at 1000×g at 4° C. within 20 minutes of collection. 20 μl of plasma supernatant was stored at −20° C. before ELISA analysis.
Plasma was diluted at 1:10 in sterile PBS, and IL-6 and TNF-α quantification was performed in duplicate for each animal using 10 μl of sample per well in 96-well plates using the ELISA method (IL-6: Signa-Aldrich Cat #RAB0308, TNF-α: Sigma-Aldrich Cat #RAB0477). Statistical analysis was carried out by 2-way ANOVA with Dunnett's multiple comparisons post-test with compound-treated samples compared to vehicle-treated samples.

[4] = tested on: Rat primary cortical neuron cultures; details: LPS 24 h
[5] = tested on: primary culture of both cortical neurons and microglia; assay: Microglial activation (Iba1 area) after Aβ1-42 challenge; assay type: cell-based; details: 5 ng/ml; 15 min Pre-Aβ challenge
[6] = 2 months of treatment, doses as in the value

## CCC(C)CN1CC2N(Cc3ccc(OC(F)F)cc3)CCC(=O)N2[C@@H](C)C1=O (some centres unmarked) [Compound 6a]
[1]; at at least one tested dose
  Expression of IL-1β and TNF-α (result in words): significantly reduced
[1]; dose 0.1 nM
  Significant reduction in pro-inflammatory cytokine expression: IL-1β: NS
  Significant reduction in pro-inflammatory cytokine expression: IL-6: NS
  Significant reduction in pro-inflammatory cytokine expression: TNF-α: NS
[1]; dose 10 nM
  Significant reduction in pro-inflammatory cytokine expression: IL-1β: NS
  Significant reduction in pro-inflammatory cytokine expression: IL-6: NS
  Significant reduction in pro-inflammatory cytokine expression: TNF-α: NS
[1]; dose 1000 nM
  Significant reduction in pro-inflammatory cytokine expression: IL-1β: + (“+” indicates a p value <0.05 in Tukey post test)
  Significant reduction in pro-inflammatory cytokine expression: IL-6: NS
  Significant reduction in pro-inflammatory cytokine expression: TNF-α: + (“+” indicates a p value <0.05 in Tukey post test)
[2]
  Protection of primary neurons from LPS-stimulated inflammatory toxicity (in words): protected primary neurons from LPS-stimulated inflammatory toxicity
[3]; 10 mg/kg PO daily
  Significant decrease in plasma cytokine expression after 2 months of treatment: IL-6: ++++ (++++ = p < 0.0001)
  Significant decrease in plasma cytokine expression after 2 months of treatment: TNF-α: ++++ (++++ = p < 0.0001)
[3]; 20 mg/kg PO daily
  Significant decrease in plasma cytokine expression after 2 months of treatment: IL-6: ++++ (++++ = p < 0.0001)
  Significant decrease in plasma cytokine expression after 2 months of treatment: TNF-α: ++++ (++++ = p < 0.0001)
[3]; [6]
  Plasma IL-6 expression (result in words): significantly reduced expression of both cytokines at doses of 10 and 20 mg/kg
  Plasma TNF-α expression (result in words): significantly reduced expression of both cytokines at doses of 10 and 20 mg/kg
[4]; dose 0.1 nM
  Significance of neuroprotection vs 1 uM LPS: +++ (+++ indicates p<0.001)
[4]; dose 1 nM
  Significance of neuroprotection vs 1 uM LPS: +++ (+++ indicates p<0.001)
[4]; dose 10 nM
  Significance of neuroprotection vs 1 uM LPS: +++ (+++ indicates p<0.001)
[4]; dose 100 nM
  Significance of neuroprotection vs 1 uM LPS: +++ (+++ indicates p<0.001)
[4]; dose 1 μM
  Significance of neuroprotection vs 1 uM LPS: +++ (+++ indicates p<0.001)

## HGF: Hepatocyte growth factor, 5 ng/ml treatment in the microglia culture
[5]
  Significant decrease in Iba1 area, compared to vehicle treated (Aβ challenge): + (“+” indicates a p value < 0.05 in Fisher's LSD post-test compared to Aβ challenged)
